Experiment: Preliminary stability study of API intravesical solution
Assay type: physicochemical
Experimental: Two dose strengths were specified: 40 μg/mL and 150 μg/mL API. These concentrations were defined in order to stay below 80% of the saturated solubility values obtained during previous experiments. To enable dissolution of the API, 0.5 wt.-% and 2 wt.-% vitamin E TPGS were used for 40 μg/mL and 150 μg/mL API, respectively (24 h stirring). The compositions were treated with nitrogen and stored at 5° C., 25° C. and 40° C.

[1] = vitamin E TPGS 0.5%, API 40 μg/mL, no Asc., treated with nitrogen, 6° C., 1 m
[2] = vitamin E TPGS 0.5%, API 40 μg/mL, no Asc., treated with nitrogen, 6° C., 2 w
[3] = vitamin E TPGS 0.5%, API 40 μg/mL, no Asc., treated with nitrogen, 6° C., 3 m
[4] = vitamin E TPGS 0.5%, API 40 μg/mL, no Asc., treated with nitrogen, 25° C., 1 m
[5] = vitamin E TPGS 0.5%, API 40 μg/mL, no Asc., treated with nitrogen, 25° C., 2 w
[6] = vitamin E TPGS 0.5%, API 40 μg/mL, no Asc., treated with nitrogen, 25° C., 3 m
[7] = vitamin E TPGS 0.5%, API 40 μg/mL, no Asc., treated with nitrogen, 40° C., 1 m
[8] = vitamin E TPGS 0.5%, API 40 μg/mL, no Asc., treated with nitrogen, 40° C., 2 w
[9] = vitamin E TPGS 0.5%, API 40 μg/mL, no Asc., treated with nitrogen, 40° C., 3 m
[10] = vitamin E TPGS 0.5%, API 40 μg/mL, no Asc., treated with nitrogen, t = 0
[11] = vitamin E TPGS 2%, API 150 μg/mL, Asc. 1%, 6° C., 1 m
[12] = vitamin E TPGS 2%, API 150 μg/mL, Asc. 1%, 6° C., 2 w
[13] = vitamin E TPGS 2%, API 150 μg/mL, Asc. 1%, t = 0
[14] = vitamin E TPGS 2%, API 150 μg/mL, no Asc., treated with nitrogen, 6° C., 1 m
[15] = vitamin E TPGS 2%, API 150 μg/mL, no Asc., treated with nitrogen, 6° C., 2 w
[16] = vitamin E TPGS 2%, API 150 μg/mL, no Asc., treated with nitrogen, 6° C., 3 m
[17] = vitamin E TPGS 2%, API 150 μg/mL, no Asc., treated with nitrogen, 25° C., 1 m
[18] = vitamin E TPGS 2%, API 150 μg/mL, no Asc., treated with nitrogen, 25° C., 2 w
[19] = vitamin E TPGS 2%, API 150 μg/mL, no Asc., treated with nitrogen, 25° C., 3 m
[20] = vitamin E TPGS 2%, API 150 μg/mL, no Asc., treated with nitrogen, 40° C., 1 m
[21] = vitamin E TPGS 2%, API 150 μg/mL, no Asc., treated with nitrogen, 40° C., 2 w
[22] = vitamin E TPGS 2%, API 150 μg/mL, no Asc., treated with nitrogen, 40° C., 3 m
[23] = vitamin E TPGS 2%, API 150 μg/mL, no Asc., treated with nitrogen, t = 0

In the case of CN(C)[C@]1(c2cccc(F)c2)CC[C@]2(CC1)c1[nH]c3ccccc3c1CCN2C(=O)/C=C/c1ccccc1 [API, cis-(E)-4-(3-fluorophenyl)-2′,3′,4′,9′-tetrahydro-N,N-dimethyl-2′-(1-oxo-3-phenyl-2-propenyl)-spiro[cyclohexane-1,1′[1H]-pyrido[3,4-b]indol]-4-amine], the Assay [1] is reported as 54.62 % L.S, the Impurities [1] is reported as 0.58 % (a/a) and the Assay [2] is reported as 54.81 % L.S. For the same molecule, the Impurities [2] was 0.08 % (a/a), the Assay [3] was 55.05 % L.S and the Impurities [3] was 0.69 % (a/a). The Assay [4] was 54.98 % L.S, the Impurities [4] was 0.86 % (a/a) and the Assay [5] was 54.71 % L.S. The Impurities [5] was 0.97 % (a/a), the Assay [6] was 54.50 % L.S and the Impurities [6] was 1.42 % (a/a). The Assay [7] was 54.06 % L.S, the Impurities [7] was 1.78 % (a/a) and the Assay [8] was 54.61 % L.S. The Impurities [8] was 1.04 % (a/a), the Assay [9] was 52.07 % L.S and the Impurities [9] was 4.94 % (a/a). For the same molecule, the Assay [10] was 54.58 % L.S, the Impurities [10] was 0.55 % (a/a) and the Assay [11] was 67.68 % L.S. For the same molecule, the Impurities [11] was 1.16 % (a/a), the Assay [12] was 68.11 % L.S and the Impurities [12] was 0.68 % (a/a). For the same molecule, the Assay [13] was 68.21 % L.S, the Impurities [13] was 0.68 % (a/a) and the Assay [14] was 61.93 % L.S. The Impurities [14] was 0.72 % (a/a), the Assay [15] was 62.29 % L.S and the Impurities [15] was 0.49 % (a/a). The Assay [16] was 62.05 % L.S, the Impurities [16] was 0.72 % (a/a) and the Assay [17] was 62.07 % L.S. The Impurities [17] was 1.00 % (a/a), the Assay [18] was 61.97 % L.S and the Impurities [18] was 0.68 % (a/a). For the same molecule, the Assay [19] was 61.96 % L.S, the Impurities [19] was 1.37 % (a/a) and the Assay [20] was 61.37 % L.S. The Impurities [20] was 1.84 % (a/a), the Assay [21] was 61.71 % L.S and the Impurities [21] was 1.16 % (a/a). For the same molecule, the Assay [22] was 59.41 % L.S, the Impurities [22] was 4.09 % (a/a) and the Assay [23] was 61.73 % L.S. The Impurities [23] was 0.44 % (a/a).
